According to patent US20240285514A1, “EXTRACTS OF EUTERPE OLERACEA, METHODS OF MAKING, AND USES THEREOF” (Naturesphix Limited, priority 2021, published 2024):
Each block holds one compound with its values, some of them ahead of it.

Key:
MMP-1 enzyme = target: T1, MMP-1 enzyme (Homo sapiens, UniProt P03956); assay: Metalloproteinase-1 (MMP-1) enzyme activity; assay type: biochemical
T1 sequence (P03956 100-469): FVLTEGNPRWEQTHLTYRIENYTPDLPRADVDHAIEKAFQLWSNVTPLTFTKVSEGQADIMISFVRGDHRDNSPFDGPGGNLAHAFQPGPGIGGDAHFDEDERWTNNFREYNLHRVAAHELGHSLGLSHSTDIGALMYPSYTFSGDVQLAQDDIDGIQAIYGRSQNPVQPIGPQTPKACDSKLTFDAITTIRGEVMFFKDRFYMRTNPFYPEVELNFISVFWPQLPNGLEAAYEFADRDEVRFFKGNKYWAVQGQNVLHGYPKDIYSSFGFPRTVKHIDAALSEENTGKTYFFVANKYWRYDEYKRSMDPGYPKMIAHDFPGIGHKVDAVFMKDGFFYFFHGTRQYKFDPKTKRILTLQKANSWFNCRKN
Procedure: The MMP-1 enzyme was evaluated after incubation with the Vehicle (0.04% DMSO), ST-035 (10 μg/mL), Ascorbic acid Reference Substance (10 μg/mL), Ferulic acid Reference Substance (4 μg/mL) or positive control of the test, GM6001, a MMP-1 enzyme activity inhibitor. The bars represent the mean±standard error of the mean of 1 assay performed in triplicate. The percentage of inhibition was calculated in relation to the Vehicle group. For the statistical analysis a one-way analysis of variance (ANOVA) was used, followed by the Newman-Keuls test (*p<0.05 in comparison to Vehicle group).

[1] = test system: reconstructed human tissue model; assay: Skin irritation assay, reconstructed human epidermis (OECD TG439); assay type: cell-based; conditions: 42 minutes treatment; three tissues
Procedure: The possible irritant action of ST-035 on a reconstructed human tissue model, as described in the OECD Guidelines for the Testing of Chemicals, Section 4, TG439 In Vitro Skin Irritation: Reconstructed Human Epidermis Test Method was evaluated. After receiving the tissues, they were readapted in growth medium overnight until the Treatment moment. After the readaptation, Negative Control, positive control (Reference Substance) or Test Substance were added in a 16 μL volume on the epidermis and maintained for 42 minutes (±1 minute). Following, each tissue went through a 25-phosphate buffer washing process to remove the Treatments. Subsequently, the epidermis was maintained for 42 hours (±1 hour) in growth medium in a CO2 incubator (5±0.1%) at 37±0.1° C. After this period, the tissues were incubated for 3 hours (±15 minutes) with a 1 mg/mL MTT solution and then 2 hours with isopropanol for the formazan complex extraction. Then, 200 μL of each well (in duplicate) were transferred to a 96-well plate for absorbance reading at 570 nm.
Skin irritation assay in a reconstructed human skin model is an alternative method that follows the OECD TG439 standards and is validated by international centers, with international regulatory acceptance. […]

human keratinocytes [2] = assay: Scavenger potential against UVB radiation in keratinocytes (DCFH-DA probe); assay type: cell-based; conditions: 10 μg/mL added immediately prior to UVB 90 mJ/cm^2; vs vehicle+UVB
Procedure: (§1) The 2′,7′ dichlorofluorescein diacetate (nonfluorescent) is de-esterified intracellularly and becomes a 2′,7′ highly fluorescent dichlorofluorescein after oxidation. Fluorescence detection was performed at 485 nm excitation wavelength and 535 nm emission wavelength in SpectraMax i3x (Molecular Devices) equipment. […] The concentrations of the Test Substance (10 μg/mL), Ascorbic acid Reference Substance (10 μg/mL) and Ferulic acid Reference Substance (4 μg/mL) were prepared according to the description above (Test Substance, Reference Substances and Vehicle Preparation).

human keratinocytes [3] = assay: Scavenger activity against UVB radiation, section headed 'in Fibroblasts' (FIG. 14); assay type: cell-based; conditions: 10 μg/mL added immediately prior to UVB 90 mJ/cm2; vs vehicle+UVB
Procedure: as §1

human fibroblasts = assay: Antioxidant potential against UVB in human fibroblasts (DCFH-DA probe); assay type: cell-based; conditions: pre-incubation before UVB 90 mJ/cm^2, vs vehicle+UVB
Procedure: as §1, with “Preparation). The human fibroblasts were incubated with a DCFH-DA probe (50 μM) for 30 minutes. After this period, the fibroblasts were incubated. For statistical analysis, one-way variance analysis (ANOVA) was used, followed by Newman-Keuls test (#p<0.05 compared to Vehicle group and *p<0.05 compared to Vehicle+UVB 90 mJ/cm^2).” for “Preparation).”

human keratinocytes [4] = assay: Antioxidant potential against UVB radiation in keratinocytes (24 h pre-treatment, DCFH-DA probe); assay type: cell-based; conditions: 10 μg/mL; incubation 24 hours before UVB 90 mJ/cm^2; vs vehicle+UVB
Procedure: as §1

human keratinocytes [5] = assay: Intrinsic antioxidant activity (basal EROs production) with DCFH-DA probe in keratinocytes; assay type: cell-based; conditions: no UVB, vs vehicle
Procedure: as §1, with “Preparation). The intrinsic antioxidant activity of Test Substance in human keratinocytes was evaluated as follows. […] Subsequently, the production of EROs was evaluated through the microplate reader (485/535 nm). Two different assays were performed in triplicate. For the statistical analysis, one-way analysis of variance (ANOVA) was used, followed by the Newman-Keuls test (*p<0.05 in comparison to Vehicle group).” for “Preparation).”

tyrosinase = assay: Tyrosinase enzyme activity; assay type: biochemical
Procedure: After that, 170 μL of L-tyrosine substrate 1 mM, solubilized in a potassium phosphate buffer 50 mM (pH 6.5) were added. After the incubation period of 30 to 40 minutes, the plate was read at 490 nm.
For the statistical analysis one-way analysis of variance (ANOVA) was used, followed by the Newman-Keuls test (*p<0.05 in comparison to the Vehicle group). The percentage of inhibition was calculated in relation to the Vehicle group.

Structure (SMILES): CNC(=O)[C@H](Cc1c[nH]c2ccccc12)NC(=O)[C@@H](CC(=O)NO)CC(C)C [GM6001]
reduction of MMP-1 activity (MMP-1 enzyme; 1 μM, assay validation): 81.3±1.5%

Structure (SMILES): CCCCCCCCCCCCOS(=O)(=O)[O-].[Na+] [SDS, sodium dodecylsulfate]
tissue viability mean (absorbance at 570 nm) [1]: 0.018±0.001

Structure (SMILES): COc1cc(/C=C/C(=O)O)ccc1O [ferulic acid]
change of MMP-1 activity in vitro (MMP-1 enzyme; 4 μg/mL, vs vehicle): did not change
reduction of production of reactive oxygen species (antioxidant potential) (human fibroblasts; 4 μg/mL): 47.4±0.5%
reduction of basal production of EROs (human keratinocytes [5]; 4 μg/mL, 4 hours): 26.8±2.4%
reduction of basal production of EROs (human keratinocytes [5]; 4 μg/mL, 24 hours): 45.8±6.6%

More lines, main results first:

inhibition at 10 µg/mL (MMP-1 enzyme; 10 μg/mL, vs vehicle): 9.2 ± 1.5%
Structure (SMILES): O=C1O[C@H]([C@@H](O)CO)C(O)=C1O [ascorbic acid]
reduction of UVB induced production of EROs (scavenger potential) (human keratinocytes [2]): 46.2±2.0%
reduction of UVB induced production of EROs (scavenger potential, FIG. 14) (human keratinocytes [3]): 46.2±2.0%
reduction of production of reactive oxygen species (antioxidant potential) (human fibroblasts; 10 μg/mL): 30.5±6.2%
decrease of production of EROs after UVB (antioxidant capacity) (human keratinocytes [4]): 44.3±11.4%
reduction of basal production of EROs (human keratinocytes [5]; 10 μg/mL, 4 hours): did not change
reduction of basal production of EROs (human keratinocytes [5]; 10 μg/mL, 24 hours): did not change

reduction of tyrosinase enzyme activity (tyrosinase; 300 μg/mL): 43%
reduction of tyrosinase enzyme activity (tyrosinase; 1,000 μg/mL): 84%
Structure (SMILES): O=c1cc(CO)occ1O [kojic acid]
